Patent publication US11007199B2, “Compositions and methods for ameliorating pain and reducing fever” (The Board of Supervisors of Louisiana State University and …, priority 2017, dated 2021)
“Also recorded” adds a separate entry of the source.

Columns and labels:
hepatocytes = assay: Hepatotoxicity (LDH assay, GSH assay); format: cell-based; settings: FIG. 6
Method: LDH assay. Using the Pierce LDH Cytotoxicity assay kit from Thermo Scientific, cells were incubated in presence of various drug compounds, followed by collection of the medium supernatant. Release of LDH was measured in 96 well plate formats. The absorbance was measured at 490 nm and 680 nm and the final result was absorbance observed at 680 nm subtracted from absorbance observed at 490 nm (A490nw-A680nm).
GSH assay. Using the ThiolTracker Violet Glutathione Detection reagent from Molecular Probes (Invitrogen), after hepatocytes were incubated in the presence of various compounds, incubation medium was removed, cells rinsed with D-PBS conditioned medium followed by incubation with pre-warmed ThiolTracker Violet dye (working solution prepared as per manufacturer's instructions) for 30 minutes. Fluorescence was measured at the following wavelengths: excitation (404 nm) and emission (526 nm). The finalized result was expressed as relative fluorescence units (RFU), which indicates the cellular level of reduced glutathione (GSH) in intact cells.
Hepatotoxicity results for the inventive DEA salt compound are shown m FIG. 6.

CD-1 male mice [1] = assay: Baker yeast-induced hyperthermia (antipyresis); format: in vivo; settings: 50 mg/kg bw p.o., baker's yeast-induced fever, FIG. 5
Method: The antipyretic effect of the compounds was assessed utilizing baker yeast-induced hyperthermia. All animals (CD-1 male mice weighing between 45-50 g) were fasted overnight (with free access to water) and their baseline temperature was recorded using a Cole-[…] rectal thermometer probe. […] (206% […].); (Groups 5-6) DEA salt-Brewer's yeast soln. (20% w/v) (i.p.) and DEA Salt (50 mg/kg bw) (p.o.). Two hours post-injection, rectal temperatures were recorded once again, to determine total change in body temperature. Percentage Change in body temperature is calculated with the formula, Percentage Change=[(Total change in body temperature)/(Base temperature)*100]. Data is expressed as mean±SEM, n=10.

CD-1 male mice [2] = assay: Acetic acid-induced abdominal writhing assay; format: in vivo
Method: Acetic acid-induced abdominal writhing assay. Contraction of the abdominal muscle and stretching of the hind limbs is induced as a response to intraperitoneal (ip) injection of an acetic acid solution, as described Hendershot and Forsaith, 1959. In this model of visceral pain, abdominal contractions (writhing) is induced in mice by an ip injection of 0.4% acetic acid at a dose of 10 mL/Kg, 25 min after drug administration. The number of writhes is counted for 10 min beginning 5 min after acetic acid injection.
All groups have been compared to vehicle and differences analyzed by one-way ANOVA followed by Sidak's multiple comparison post hoc test.

CD1 male mice = assay: Tail-flick assay; settings: in vivo analgesia model, FIG. 8; per os at 40 mg/kg
Method: Tail-flick assay. Analgesic effect of drugs was determined by using the reaction time (latency) of mice to thermal stimulation of the tail tip. All animals (CD1 male mice) were fasted overnight (with free access to water) and their baseline tail flick latency (seconds) was recorded twice for each mouse using an IITC Tail Flick Analgesia Meter.
After measurement of baseline latency, drugs were administered per os at 40 mg/kg to animals belonging to the treatment groups. At 30 minutes post injection, tail flick latency was recorded again, twice for each mouse, to determine total change in latency. Mice were subjected to cold shock by dipping their tails into ice-cold water at 4° C.
Percentage of maximum analgesia for each mouse were calculated with the formula, Percentage Analgesia=100*{[(Latency to tail flick after drug injection)−(Latency to tail flick at baseline)]/[(12 sec cutoff time)−(Baseline latency)]}. Data expressed as mean±SEM, n=10.

rats = assay: Von Frey analgesia assay; settings: in vivo analgesia model, FIG. 8; IP injection
Method: Von Frey analgesia assay. Twenty rats are brought into the eVF room and allowed to acclimate to the room for 30 minutes. At the 30 minute mark, saline injections begin. 30 minutes after the saline injection, the eVF readings of the rats are taken by applying the filament of the eVF machine to the center of the bottom of the hind paws (left and right) of each rat. The filament uses a magnet to remain attached to the probe, which measures the pressure in grams applied to the filament. The pressure readout is then recorded from the transducer.
After saline injections, a drug is injected (different compound each day). In the same manner as saline injections, at the 30 minute mark after each drug injection, eVF readings of each rat are taken.
Drug Injection/Concentration: All drugs and saline were administered by intraperitoneal (IP) injection. Each injection was 1 mL/kg of body weight (i.e., 463 g rat received 0.463 mL of injection). Four doses on a logarithmic scale for ApAP w ere used. 10 mg/kg, 32 mg/kg, 100 mg/kg, and 320 mg/kg.

## CCNCC.O=C(CNS(=O)(=O)c1ccccc1C(=O)O)Nc1ccc(O)cc1 [DEA salt, 2-[[2-(4-hydroxyanilino)-2-oxo-ethyl]sulfamoyl]benzoate diethylammonium salt]
hepatocytes
  hepatotoxicity versus ApAP: minimal hepatotoxicity; also recorded: decreased toxicity
CD-1 male mice [1]
  antipyretic effect versus ApAP: antipyretic effect comparable to ApAP
CD-1 male mice [2]; CD-1 male mice, per os, ip 0.4% acetic acid
  calculated 50% effective dose (ED50) based on the writhing assay: 10.3 mg/kg
CD-1 male mice [2]; FIG. 8, vehicle only nearly 40
  number of writhes induced by injection of acetic acid: under 20
CD-1 male mice [2]; in vivo analgesia model, FIG. 8
  reducing pain versus ApAP, acetic acid-induced abdominal writhing: comparable to ApAP in reducing pain
CD1 male mice
  reducing pain versus ApAP, tail flick assay: comparable to ApAP in reducing pain
rats
  reducing pain versus ApAP, Von Frey assay: comparable to ApAP in reducing pain
